Target: T1, hMAGL (Homo sapiens, UniProt Q99685)
T1 sequence (Q99685 1-303): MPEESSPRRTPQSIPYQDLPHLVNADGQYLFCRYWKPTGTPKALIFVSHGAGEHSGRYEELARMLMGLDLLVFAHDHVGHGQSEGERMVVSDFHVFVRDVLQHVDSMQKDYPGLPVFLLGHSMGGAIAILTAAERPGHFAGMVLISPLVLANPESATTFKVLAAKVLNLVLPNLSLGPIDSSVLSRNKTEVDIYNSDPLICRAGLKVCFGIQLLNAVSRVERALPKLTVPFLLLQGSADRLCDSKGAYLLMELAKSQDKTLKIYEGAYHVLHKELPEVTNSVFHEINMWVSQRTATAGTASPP
Experiment: 2-AG assay: MAGL inhibition, hydrolysis of 2-arachidonoylglycerol to arachidonic acid followed by mass spectrometry
Type: biochemical
Procedure, shortened: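 MAGL preincubated with compound 15 min at RT in 50 mM Tris, 1 mM EDTA, 0.01% Tween-20, 2.5% DMSO; reaction started with 8 μM 2-AG (final), […], 30 min at RT. Quenched with acetonitrile containing d8-arachidonic acid; arachidonic acid quantified by RapidFire SPE-triple quad MS as arachidonic acid/d8 ratio.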

An IC50 of 25.6 nM was found for `O=C(N1CC2(CC(n3cnc(C4CC4)n3)C2)C1)N1CC2(CN(Cc3nc(CC(F)(F)F)no3)C2)C1` [Example 207, [6-(3-cyclopropyl-1,2,4-triazol-1-yl)-2-azaspiro[3.3]heptan-2-yl]-[6-[[3-(2,2,2-trifluoroethyl)-1,2,4-oxadiazol-5-yl]methyl]-2,6-diazaspiro[3.3]heptan-2-yl]methanone] in this work.
An IC50 of 1.63 nM was found for `O=C(N1CC2(CC(Cn3cc(C4(C(F)(F)F)CC4)cn3)C2)C1)N1CC2(CC(n3cnc(C4(O)CC4)n3)C2)C1` [Example 60, [6-[3-(1-hydroxycyclopropyl)-1,2,4-triazol-1-yl]-2-azaspiro[3.3]heptan-2-yl]-[6-[[4-[1-(trifluoromethyl)cyclopropyl]pyrazol-1-yl]methyl]-2-azaspiro[3.3]heptan-2-yl]methanone] in this work.
An IC50 of 3.44 nM was found for `O=C(N1CC2(CC(c3cc(C4CC4)n[nH]3)C2)C1)N1CC2(CN(Cc3ncc(C(F)F)s3)C2)C1` [Example 185, [6-(3-cyclopropyl-1H-pyrazol-5-yl)-2-azaspiro[3.3]heptan-2-yl]-[6-[[5-(difluoromethyl)thiazol-2-yl]methyl]-2,6-diazaspiro[3.3]heptan-2-yl]methanone] in this work.
An IC50 of 138 nM was found for `O=C(N1CC2(CC(n3cnc(C4(O)CC4)n3)C2)C1)N1CC2(CN(Cc3nc(C(F)(F)F)cs3)C2)C1` [Example 52] in this work.
An IC50 of 18.7 nM was found for `CC(C)(C)c1conc1CN1CC2(C1)CN(C(=O)N1CC3(CC(n4cnc(C(F)(F)F)n4)C3)C1)C2` [Example 255, [6-[(4-tert-butylisoxazol-3-yl)methyl]-2,6-diazaspiro[3.3]heptan-2-yl]-[6-[3-(trifluoromethyl)-1,2,4-triazol-1-yl]-2-azaspiro[3.3]heptan-2-yl]methanone] in this work.
An IC50 of 71.5 nM was found for `O=C(N1CC2(CC(n3cnc(C4CC4)n3)C2)C1)N1CC2(CN(Cc3nnnn3CC(F)(F)F)C2)C1` [Example 198, [6-(3-cyclopropyl-1,2,4-triazol-1-yl)-2-azaspiro[3.3]heptan-2-yl]-[6-[[1-(2,2,2-trifluoroethyl)tetrazol-5-yl]methyl]-2,6-diazaspiro[3.3]heptan-2-yl]methanone] in this work.
An IC50 of 368 nM was found for `Cn1ncc(CN2CC3(C2)CN(C(=O)N2CC4(CC(n5cnc(C6CC6)n5)C4)C2)C3)c1S(N)(=O)=O` [Example 251] in this work.
An IC50 of 120 nM was found for `CCc1nsc(CN2CC3(C2)CN(C(=O)N2CC4(CC(n5cnc(C(F)(F)F)n5)C4)C2)C3)n1` [Example 286, [6-[(3-ethyl-1,2,4-thiadiazol-5-yl)methyl]-2,6-diazaspiro[3.3]heptan-2-yl]-[6-[3-(trifluoromethyl)-1,2,4-triazol-1-yl]-2-azaspiro[3.3]heptan-2-yl]methanone] in this work.
An IC50 of 13.1 nM was found for `O=C(N1CC2(CC(n3cnc(C4CC4)n3)C2)C1)N1CC2(CN(Cc3cnc(C(F)(F)F)o3)C2)C1` [Example 212, [6-(3-cyclopropyl-1,2,4-triazol-1-yl)-2-azaspiro[3.3]heptan-2-yl]-[6-[[2-(trifluoromethyl)oxazol-5-yl]methyl]-2,6-diazaspiro[3.3]heptan-2-yl]methanone] in this work.
An IC50 of 44.8 nM was found for `O=C(N1CC2(CCN(Cc3nc(C(F)(F)F)cs3)CC2)C1)N1CC2(CC(n3cnc(C(F)(F)F)n3)C2)C1` [Example 176, [7-[[4-(trifluoromethyl)thiazol-2-yl]methyl]-2,7-diazaspiro[3.5]nonan-2-yl]-[6-[3-(trifluoromethyl)-1,2,4-triazol-1-yl]-2-azaspiro[3.3]heptan-2-yl]methanone] in this work.
An IC50 of 23.1 nM was found for `O=C(N1CC2(CC(n3cnc(C(F)(F)F)n3)C2)C1)N1CC2(CN(Cc3nc(C4CC4)ns3)C2)C1` [Example 43, [6-[(3-cyclopropyl-1,2,4-thiadiazol-5-yl)methyl]-2,6-diazaspiro[3.3]heptan-2-yl]-[6-[3-(trifluoromethyl)-1,2,4-triazol-1-yl]-2-azaspiro[3.3]heptan-2-yl]methanone] in this work.
An IC50 of 0.77 nM was found for `O=C(N1CC2(CC(Cc3nc(C(F)(F)F)c[nH]3)C2)C1)N1CC2(CC(n3cnc(C4CC4)n3)C2)C1` [Example 351, [6-(3-cyclopropyl-1,2,4-triazol-1-yl)-2-azaspiro[3.3]heptan-2-yl]-[6-[[4-(trifluoromethyl)-1H-imidazol-2-yl]methyl]-2-azaspiro [3.3]heptan-2-yl]methanone] in this work.
An IC50 of 0.94 nM was found for `O=C(N1CC2(CC(Cn3ccc(C4CC4)n3)C2)C1)N1CC2(CC(n3cnc(C(F)(F)F)n3)C2)C1` [Example 142, [6-[(3-cyclopropylpyrazol-1-yl)methyl]-2-azaspiro[3.3]heptan-2-yl]-[6-[3-(trifluoromethyl)-1,2,4-triazol-1-yl]-2-azaspiro[3.3]heptan-2-yl]methanone] in this work.
An IC50 of 4.54 nM was found for `Cc1cc(C2CC2)n(CC2CC3(C2)CN(C(=O)N2CC4(CC(n5cnc(C6(O)CC6)n5)C4)C2)C3)n1` [Example 133, [6-[(5-cyclopropyl-3-methyl-pyrazol-1-yl)methyl]-2-azaspiro[3.3]heptan-2-yl]-[6-[3-(1-hydroxycyclopropyl)-1,2,4-triazol-1-yl]-2-azaspiro[3.3]heptan-2-yl]methanone] in this work.
An IC50 of 5.28 nM was found for `CC(C)(C)c1nnc(CN2CC3(C2)CN(C(=O)N2CC4(CC(n5cnc(C6CC6)n5)C4)C2)C3)s1` [Example 209, [6-[(5-tert-butyl-1,3,4-thiadiazol-2-yl)methyl]-2,6-diazaspiro[3.3]heptan-2-yl]-[6-(3-cyclopropyl-1,2,4-triazol-1-yl)-2-azaspiro[3.3]heptan-2-yl]methanone] in this work.
An IC50 of 0.23 nM was found for `O=C(N1CC2(CC(Cc3cc(C(F)(F)F)n[nH]3)C2)C1)N1CC2(CC(n3cnc(C(F)(F)F)n3)C2)C1` [Example 298, [6-[[3-(trifluoromethyl)-1H-pyrazol-5-yl]methyl]-2-azaspiro[3.3]heptan-2-yl]-[6-[3-(trifluoromethyl)-1,2,4-triazol-1-yl]-2-azaspiro[3.3]heptan-2-yl]methanone] in this work.
An IC50 of 17.5 nM was found for `O=C(N1CC2(CC(Cc3nc(C(F)(F)F)ns3)C2)C1)N1CC2(CC(n3cnc(C4(O)CC4)n3)C2)C1` [Example 17, [6-[3-(1-hydroxycyclopropyl)-1,2,4-triazol-1-yl]-2-azaspiro[3.3]heptan-2-yl]-[6-[[3-(trifluoromethyl)-1,2,4-thiadiazol-5-yl]methyl]-2-azaspiro[3.3]heptan-2-yl]methanone] in this work.
An IC50 of 4.12 nM was found for `CC(C)(C)c1coc(CN2CC3(C2)CN(C(=O)N2CC4(CC(n5cnc(C(F)(F)F)n5)C4)C2)C3)n1` [Example 97, [6-[(4-tert-butyloxazol-2-yl)methyl]-2,6-diazaspiro[3.3]heptan-2-yl]-[6-[3-(trifluoromethyl)-1,2,4-triazol-1-yl]-2-azaspiro[3.3]heptan-2-yl]methanone] in this work.
An IC50 of 9.95 nM was found for `O=C(N1CC2(CC(c3cc(C4CC4)n[nH]3)C2)C1)N1CC2(CN(Cc3nc(C(F)(F)F)no3)C2)C1` [Example 171, [6-(3-cyclopropyl-1H-pyrazol-5-yl)-2-azaspiro[3.3]heptan-2-yl]-[6-[[3-(trifluoromethyl)-1,2,4-oxadiazol-5-yl]methyl]-2,6-diazaspiro[3.3]heptan-2-yl]methanone] in this work.
An IC50 of 223 nM was found for `O=C(N1CC2(CC(n3cnc(C4CC4)n3)C2)C1)N1CC2(CN(Cc3snnc3C3CC3)C2)C1` [Example 90, [6-[(4-cyclopropylthiadiazol-5-yl)methyl]-2,6-diazaspiro[3.3]heptan-2-yl]-[6-(3-cyclopropyl-1,2,4-triazol-1-yl)-2-azaspiro[3.3]heptan-2-yl]methanone] in this work.
An IC50 of 0.63 nM was found for `Cn1ncc(C(F)(F)F)c1CN1CC2(C1)CN(C(=O)N1CC3(CC(c4cc(C5CC5)n[nH]4)C3)C1)C2` [Example 157, [6-(3-cyclopropyl-1H-pyrazol-5-yl)-2-azaspiro[3.3]heptan-2-yl]-[6-[[2-methyl-4-(trifluoromethyl)pyrazol-3-yl]methyl]-2,6-diazaspiro[3.3]heptan-2-yl]methanone] in this work.
An IC50 of 0.89 nM was found for `O=C(N1CC2(CC(Cc3n[nH]c(C4(C(F)(F)F)CC4)n3)C2)C1)N1CC2(CC(n3cnc(C(F)(F)F)n3)C2)C1` [Example 101, [6-[[5-[1-(trifluoromethyl)cyclopropyl]-1H-1,2,4-triazol-3-yl]methyl]-2-azaspiro[3.3]heptan-2-yl]-[6-[3-(trifluoromethyl)-1,2,4-triazol-1-yl]-2-azaspiro[3.3]heptan-2-yl]methanone] in this work.
An IC50 of 2.79 nM was found for `CC(C)(C)c1conc1CN1CC2(C1)CN(C(=O)N1CC3(CC(n4cnc(C5CC5)n4)C3)C1)C2` [Example 256, [6-[(4-tert-butylisoxazol-3-yl)methyl]-2,6-diazaspiro[3.3]heptan-2-yl]-[6-(3-cyclopropyl-1,2,4-triazol-1-yl)-2-azaspiro[3.3]heptan-2-yl]methanone] in this work.
An IC50 of 232 nM was found for `O=C(N1CC2(CC(n3cnc(C4(O)CC4)n3)C2)C1)N1CC2(CN(Cc3nc(C4CC4)cs3)C2)C1` [Example 240, [6-[(4-cyclopropylthiazol-2-yl)methyl]-2,6-diazaspiro[3.3]heptan-2-yl]-[6-[3-(1-hydroxycyclopropyl)-1,2,4-triazol-1-yl]-2-azaspiro[3.3]heptan-2-yl]methanone] in this work.
An IC50 of 1.1 nM was found for `O=C(N1CC2(CC(Cc3nc(C4CC4)n[nH]3)C2)C1)N1CC2(CC(c3cc(C4CC4)n[nH]3)C2)C1` [Example 301, [6-(3-cyclopropyl-1H-pyrazol-5-yl)-2-azaspiro[3.3]heptan-2-yl]-[6-[(3-cyclopropyl-1H-1,2,4-triazol-5-yl)methyl]-2-azaspiro[3.3]heptan-2-yl]methanone] in this work.
An IC50 of 0.78 nM was found for `O=C(N1CC2(CC(Cn3cnc(C(F)(F)F)n3)C2)C1)N1CC2(CC(c3cc(C4CC4)n[nH]3)C2)C1` [Example 126, [6-(3-cyclopropyl-1H-pyrazol-5-yl)-2-azaspiro[3.3]heptan-2-yl]-[6-[[3-(trifluoromethyl)-1,2,4-triazol-1-yl]methyl]-2-azaspiro[3.3]heptan-2-yl]methanone] in this work.
